These results are taken from PubChem BioAssay (NCI).

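Assay format: 96-well plates, 48-hour exposure. The concentration for full growth arrest is given as TGI.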 Bounds are passed on as bounds.

What all share (assay): NCI tumour cell line growth inhibition, 48 h
The test system of test [1] is SK-MEL-5 melanoma.
The test system of test [2] is CCRF-CEM leukemia.
Test [3] has as its system K-562 leukemia.
Test [4] deals with BT-549 breast.
The subject of test [5] is MOLT-4 leukemia.
The test system of test [6] is TK-10 renal.
For test [7], the system named is A549 NSCLC.
Test [8] has as its system NCI-H522 lung.
In test [9] the test system is PC-3 prostate.
Test [10] relates to SN12C renal.
Test [11] deals with MCF7 breast.
The subject of test [12] is SR leukemia.
For test [13], the system named is OVCAR-4 ovarian.
Test [14] has as its system U251 CNS.
Test [15] concerns HCT-15 colon.
Test [16] concerns ACHN renal.
Test [17] relates to HS 578T breast.
Test [18] deals with HOP-92 NSCLC.
Test [19] concerns A498 renal.

Consider `O=C(OCC(Cl)(Cl)Cl)N1CC[C@@H](C2CCCCC2)C1`, for which the TGI in test [1] was 36.6 µM; in test [2], 46.7 µM; in [3], 50.1 µM; in [4], above 100 µM; in [5], 56.4 µM; in test [6], above 100 µM. The TGI in test [7] was above 100 µM; in test [8], 43.1 µM; in test [9], 46.3 µM; in test [10], above 100 µM; in test [11] it was 45.5 µM; in [12], 69.4 µM. Also, the TGI in test [13] turned out to be 42.2 µM; in test [14] it was 18.9 µM; in test [15], 35.9 µM; in [16], 49.7 µM.
In the case of `COc1ccc(C(=O)/C=C/c2ccc(OCC#N)cc2)cc1OC`, the TGI in test [1] is 32.2 µM; in test [2], 31.3 µM; in [3], above 100 µM; in test [4], 30 µM; in test [5], 63.6 µM; in test [6], 70 µM. Also, the TGI in test [7] is above 100 µM; in test [8], 32.5 µM; in [17] it was above 100 µM; in test [10] it was 32.3 µM; in test [11], 16 µM; in test [12], 61.2 µM. The TGI in [13] was above 100 µM; in test [14], 29.6 µM; in test [15] it was 45.5 µM; in test [16] it was 76.1 µM; in test [18], 44.3 µM.
As for `COc1ccc2[nH]c3c(C)c4ccnc(NCCCN(C)CCCN)c4c(C)c3c2c1`, the TGI was 0.37 µM in test [1]; above 32.1 µM in [2]; above 100 µM in [3]; 3.61 µM in test [4]; above 100 µM in test [5]; 1.35 µM in test [6]. Further, the TGI is 0.137 µM in test [8]; 0.712 µM in test [9]; 0.257 µM in test [10]; 0.313 µM in [11]; above 100 µM in test [12]; 0.442 µM in test [13]. Moreover, the TGI in test [15] was 1.47 µM; in test [16], 0.514 µM.
Turning to `CCOC(=O)C(Cc1ccc2c(c1)CCC2)Cc1ccc2c(c1)CCC2`, the TGI in test [1] was 40.3 µM; in [2], above 100 µM; in test [3] it was 85.7 µM; in test [5], 41.1 µM; in test [6] it was above 100 µM; in test [7], above 100 µM. Further, the TGI in [8] was above 100 µM; in [17], above 100 µM; in test [9], above 100 µM; in [19], above 100 µM; in test [11] it was above 100 µM; in [12] it was 60.1 µM. The TGI in test [13], in test [14], in test [15], in test [16] and in test [18] was above 100 µM in each case.
Consider `N#Cc1nc(-c2ccccc2O)oc1N`, for which the TGI in test [1], in test [2], in [3], in test [5], in test [6] and in test [7] was above 100 µM throughout. For the same compound, the TGI in [17], in test [9], in [19], in test [10], in test [11] and in test [14] was above 100 µM each time. The TGI in test [15], in [16] and in test [18] was above 100 µM each time.
Take `CNC(=O)C1CCC(=O)N1CN(C(C)=O)c1ccccc1` (configuration not stated): the TGI is above 100 µM in test [1]; 0.426 µM in [2]; above 100 µM in test [3]; above 100 µM in test [5]; above 100 µM in [6]; above 100 µM in [7]. Moreover, the TGI in [8], in [17], in test [9], in [19], in test [10] and in [11] was above 100 µM each time. Besides, the TGI in test [12] is 84 µM; in test [13], above 100 µM; in test [14], above 100 µM; in [15], above 100 µM; in [16], above 100 µM; in test [18], above 100 µM.
On to `N#Cc1c(N)nc2c(N=Nc3ccccc3)c(N)nn2c1Nc1ccccc1`, for which the TGI in [1] was 32.6 µM; in test [2], above 100 µM; in test [3], above 100 µM; in [4], 50.6 µM; in [5], 7.97 µM; in test [6], 52.6 µM. Further, the TGI in test [7] stood at 46.9 µM; in test [8], 39.9 µM; in test [19], 59.1 µM; in [10], 27.7 µM; in [12], 6.15 µM; in test [13], 46.4 µM. For the same compound, the TGI in [14] was 24.6 µM; in [15], above 100 µM; in test [16] it was 61.9 µM; in test [18] it was 31.6 µM.
`CC(=O)N1N=C(c2ccccc2Nc2ccccc2C2=NN(C(C)=O)C(c3ccccc3)O2)OC1c1ccccc1` (configuration not stated): the TGI in test [1], in test [3], in [4], in test [5], in test [6] and in test [7] was above 100 µM throughout. The TGI in [8], in test [9], in test [10], in [11], in [12] and in test [13] was above 100 µM each time. Besides, the TGI in [14], in test [15], in [16] and in test [18] was above 100 µM throughout.
Regarding `c1csc(-c2sc(-c3ccsc3)cc2Cc2ccsc2)c1`, the TGI in test [1], in test [2], in test [3], in test [5], in test [6] and in test [7] was above 10 µM in each case. The TGI in [9], in test [10], in test [11], in test [12], in [13] and in test [15] was above 10 µM throughout. Further, the TGI in test [18] was above 10 µM.
